How the values were obtained:
Type in all cases: in vivo
[1] = tested on: Spodoptera littoralis; assay: Spodoptera littoralis (Egyptian cotton leafworm) leaf disc spray test; settings: foliar, 72 h, 200 ppm sprayed on cotton leaf discs, L1 larvae, mortality, feeding behavior, growth regulation 3 days after treatment
Description: Spodoptera littoralis (Egyptian Cotton Leafworm):
Cotton leaf discs were placed on agar in a 24-well microtiter plate and sprayed with test solutions at an application rate of 200 ppm. After drying, the leaf discs were infested with 5 L1 larvae. The samples were checked for mortality, feeding behavior, and growth regulation 3 days after treatment (DAT).

[2] = tested on: Heliothis virescens; assay: Heliothis virescens (tobacco budworm) egg test on artificial diet; settings: 96 h, 200 ppm (concentration in well 18 ppm) by pipetting, eggs 0-24 h old on artificial diet, egg mortality, larval mortality, growth regulation after 4 days
Description: Heliothis virescens (Tobacco Budworm):
Eggs (0-24 h old) were placed in 24-well microtiter plate on artificial diet and treated with test solutions at an application rate of 200 ppm (concentration in well 18 ppm) by pipetting. After an incubation period of 4 days, samples were checked for egg mortality, larval mortality, and growth regulation.

[3] = tested on: Plutella xylostella; assay: Plutella xylostella (diamond back moth) artificial diet test; settings: 144 h, 200 ppm (concentration in well 18 ppm) on artificial diet, L2 larvae, larval mortality and growth regulation after 6 days
Description: Plutella xylostella (Diamond Back Moth):
24-well microtiter plate (MTP) with artificial diet was treated with test solutions at an application rate of 200 ppm (concentration in well 18 ppm) by pipetting. After drying, the MTP's were infested with L2 larvae (7-12 per well). After an incubation period of 6 days, samples were checked for larval mortality and growth regulation.

[4] = tested on: Diabrotica balteata; assay: Diabrotica balteata (corn root worm) artificial diet test; settings: 120 h, 200 ppm (concentration in well 18 ppm) on artificial diet, L2 larvae, larval mortality and growth regulation after 5 days
Description: Diabrotica balteata (Corn Root Worm):
A 24-well microtiter plate (MTP) with artificial diet was treated with test solutions at an application rate of 200 ppm (concentration in well 18 ppm) by pipetting. After drying, the MTP's were infested with L2 larvae (6-10 per well). After an incubation period of 5 days, samples were checked for larval mortality and growth regulation.

[5] = tested on: Thrips tabaci; assay: Thrips tabaci (onion thrips) leaf disc spray test; settings: foliar, 168 h, 200 ppm sprayed on sunflower leaf discs, thrip population of mixed ages, mortality after 7 days
Description: Thrips tabaci (Onion Thrips):
Sunflower leaf discs were placed on agar in a 24-well microtiter plate and sprayed with test solutions at an application rate of 200 ppm. After drying, the leaf discs were infested with a thrip population of mixed ages. After an incubation period of 7 days, samples were checked for mortality.

[6] = tested on: Tetranychus urticae; assay: Tetranychus urticae (two-spotted spider mite) leaf disc spray test; settings: foliar, 192 h, 200 ppm sprayed on bean leaf discs, mite populations of mixed ages, egg, larval and adult mortality 8 days later
Description: Tetranychus urticae (Two-Spotted Spider Mite):
Bean leaf discs on agar in 24-well microtiter plates were sprayed with test solutions at an application rate of 200 ppm. After drying, the leaf discs are infested with mite populations of mixed ages. 8 days later, discs are checked for egg mortality, larval mortality, and adult mortality.

Measured: pest or weed control at 200 ppm

O=C(NC1CS(=O)(=O)C1)c1ccc(C2=NOC(c3cc(Cl)cc(Cl)c3)(C(F)(F)F)C2Br)c2ccccc12 (stereo not drawn) [Compound D01, 4-[4-bromo-5-(3,5-dichlorophenyl)-5-(trifluoromethyl)-4H-isoxazol-3-yl]-N-(1,1-dioxothietan-3-yl)naphthalene-1-carboxamide]
≥ 80%: all assays above

CC1(NC(=O)c2ccc(C3=NOC(c4cc(Cl)cc(Cl)c4)(C(F)(F)F)C3Br)c3ccccc23)CSC1 (stereo not drawn) [Compound D02, 4-[4-bromo-5-(3,5-dichlorophenyl)-5-(trifluoromethyl)-4H-isoxazol-3-yl]-N-(3-methylthietan-3-yl)naphthalene-1-carboxamide]
≥ 80%: all assays above

O=C(NC1C[S+]([O-])C1)c1ccc(C2=NOC(c3cc(Cl)cc(Cl)c3)(C(F)(F)F)C2Br)c2ccccc12 (stereo not drawn) [Compound D03, 4-[4-bromo-5-(3,5-dichlorophenyl)-5-(trifluoromethyl)-4H-isoxazol-3-yl]-N-(1-oxothietan-3-yl)naphthalene-1-carboxamide]
≥ 80%: all assays above

O=C(NC1CSC1)c1ccc(C2=NOC(c3cc(Cl)cc(Cl)c3)(C(F)(F)F)C2Br)c2ccccc12 (stereo not drawn) [Compound D04, 4-[4-bromo-5-(3,5-dichlorophenyl)-5-(trifluoromethyl)-4H-isoxazol-3-yl]-N-(thietan-3-yl)naphthalene-1-carboxamide]
≥ 80%: all assays above

O=C(CNC(=O)c1ccc(C2=NOC(c3cc(Cl)cc(Cl)c3)(C(F)(F)F)C2)c2ccccc12)NC1CS(=O)(=O)C1 (stereo not drawn) [Compound D05, 4-[5-(3,5-dichlorophenyl)-5-(trifluoromethyl)-4H-isoxazol-3-yl]-N-[2-[(1,1-dioxothietan-3-yl)amino]-2-oxo-ethyl]naphthalene-1-carboxamide]
≥ 80%: all assays above

CC1(NC(=O)CNC(=O)c2ccc(C3=NOC(c4cc(Cl)cc(Cl)c4)(C(F)(F)F)C3)c3ccccc23)CSC1 (stereo not drawn) [Compound D06, 4-[5-(3,5-dichlorophenyl)-5-(trifluoromethyl)-4H-isoxazol-3-yl]-N-[2-[(3-methylthietan-3-yl)amino]-2-oxo-ethyl]naphthalene-1-carboxamide]
≥ 80%: all assays above

O=C(CNC(=O)c1ccc(C2=NOC(c3cc(Cl)cc(Cl)c3)(C(F)(F)F)C2)c2ccccc12)NC1C[S+]([O-])C1 (stereo not drawn) [Compound D07, 4-[5-(3,5-dichlorophenyl)-5-(trifluoromethyl)-4H-isoxazol-3-yl]-N-[2-oxo-2-[(1-oxothietan-3-yl)amino]ethyl]naphthalene-1-carboxamide]
≥ 80%: [1] | [3] | [5] | [6]

O=C(CNC(=O)c1ccc(C2=NOC(c3cc(Cl)cc(Cl)c3)(C(F)(F)F)C2)c2ccccc12)NC1CSC1 (stereo not drawn) [Compound D08, 4-[5-(3,5-dichlorophenyl)-5-(trifluoromethyl)-4H-isoxazol-3-yl]-N-[2-oxo-2-(thietan-3-ylamino)ethyl]naphthalene-1-carboxamide]
not listed: [2]
≥ 80%: all other assays above

O=C(NC1CS(=O)(=O)C1)c1ccc(C2=NOC(c3cc(Cl)cc(Cl)c3)(C(F)(F)F)C2)c2ncccc12 (stereo not drawn) [Compound D09, 8-[5-(3,5-dichlorophenyl)-5-(trifluoromethyl)-4H-isoxazol-3-yl]-N-(1,1-dioxothietan-3-yl)quinoline-5-carboxamide]
≥ 80%: [1] | [3]

O=C(NC1CSC1)c1ccc(C2=NOC(c3cc(Cl)cc(Cl)c3)(C(F)(F)F)C2)c2ncccc12 (stereo not drawn) [Compound D10, 8-[5-(3,5-dichlorophenyl)-5-(trifluoromethyl)-4H-isoxazol-3-yl]-N-(thietan-3-yl)quinoline-5-carboxamide]
≥ 80%: [1] | [2] | [3] | [4]

O=C(NC1C[S+]([O-])C1)c1ccc(C2=NOC(c3cc(Cl)cc(Cl)c3)(C(F)(F)F)C2)c2ncccc12 (stereo not drawn) [Compound D11, 8-[5-(3,5-dichlorophenyl)-5-(trifluoromethyl)-4H-isoxazol-3-yl]-N-(1-oxothietan-3-yl)quinoline-5-carboxamide]
≥ 80%: [1] | [2] | [3]

O=C(NC1CS(=O)(=O)C1)c1cnc(C2=NOC(c3cc(Cl)cc(Cl)c3)(C(F)(F)F)C2)c2ccccc12 (stereo not drawn) [Compound D13, 1-[5-(3,5-dichlorophenyl)-5-(trifluoromethyl)-4H-isoxazol-3-yl]-N-(1,1-dioxothietan-3-yl)isoquinoline-4-carboxamide]
≥ 80%: [1] | [2] | [3] | [4]

CC1(NC(=O)c2cnc(C3=NOC(c4cc(Cl)cc(Cl)c4)(C(F)(F)F)C3)c3ccccc23)CSC1 (stereo not drawn) [Compound D14, 1-[5-(3,5-dichlorophenyl)-5-(trifluoromethyl)-4H-isoxazol-3-yl]-N-(3-methylthietan-3-yl)isoquinoline-4-carboxamide]
not listed: [1]
≥ 80%: all other assays above

Source: patent US9307766B2, “Isoxazoline derivatives as insecticidal compounds” (Syngenta Participations AG, priority 2011, dated 2016)
